Assays:
[1] = Suspension of form A and form B in water, solid analysed by PXRD (phase stability); format: physicochemical
Protocol: (§1) Laboratory PXRD patterns were recorded with a PANalytical X'Pert Pro X-ray diffractometer using Cu Kα radiation in reflection geometry (Bragg-Brentano). The sample is placed in a silicon single crystal sample holder of 0.2 mm depth and gently and precisely flattened. The tube voltage is 45 kV and current is 40 mA. The PXRD data are collected at room temperature in the range from 2θ=3.0°-40.0° with increments of 0.017° and measurement time of 20 to 200 s/step.
In a glass tube equipped with a stirring bar 50 mg of form A and 50 mg of form B were suspended in 1 mL water and stirred for 5 days at room temperature. The resulting solid was removed from the mother liquor and analyzed by PXRD.

[2] = Milling of crystalline form B, analysed by PXRD (stability during grinding); format: physicochemical; details: 100 mg milled for 5 minutes with mortar and pestle
Protocol: as §1
100 mg of crystalline form B obtained by the protocol of example 1 was milled for 5 minutes using mortar and pestel. The crystalline mass was analyzed by powder X-ray diffractometry.

Crystal form after milling (PXRD) [2]	Structure (SMILES)	Crystal form of the solid after stirring in water (PXRD) ([1]; 50 mg form A and 50 mg form B suspended in 1 mL water, stirred 5 days at room temperature)	Thermodynamic stability relative to crystalline form A ([1]; at least at room temperature)
	CCN(C(=O)c1cnn(C(C)C(C)C)c1C)c1ccnnc1 (stereo not drawn) [form A, 1-(1,2-dimethylpropyl)-N-ethyl-5-methyl-N-pyridazin-4-yl-pyrazole-4-carboxamide]	complied with the data of crystalline form B	
form B was identified	CCN(C(=O)c1cnn(C(C)C(C)C)c1C)c1ccnnc1 (stereo not drawn) [form B, 1-(1,2-dimethylpropyl)-N-ethyl-5-methyl-N-pyridazin-4-yl-pyrazole-4-carboxamide]		thermodynamically more stable than the crystalline form A
